Experimental data reported in patent US20160160179A1, “METHOD FOR OBTAINING A POPULATION OF ISOLATED BRITE ADIPOCYTES” (INSERM (INSTITUT NATIONAL DE LA SANTÉ ET DE LA RECHERCHE …, priority 2013, published 2016).
Structures can show the parent of a compound that is named as a salt.

Legend:
[1] = tested on: whole native progenitor cells (CD45−/CD34+/CD31−); experiment: In vitro adipogenesis of whole native progenitor cells; assay type: cell-based, human; details: 0.25 mM IBMX for 3 days, ITTC medium until day 10
Excerpt: (§1) An immuno-selection/depletion approach was developed to obtain the native progenitor cell subsets starting from 50.10^6 to 150.10^6 SVF cells. The total progenitor cell population (CD34+/CD31− cells) was obtained in two steps: immune cells were first removed using CD45 positive cell-depletion step (CD45-depletion kit from Stemcell Technologies, Grenoble, France) followed by endothelial cell depletion step using an anti-CD31-depletion kit (R&D Systems, Lille, France) according to manufacturer's protocol. To further isolate the distinct progenitor cell subsets, the Mscal-positive cells were selected from the CD45−/CD31− cells, the −/CD271 positive cells were selected from the CD45−/CD31−/MSCA1− cells and the CD45−/CD31−/MSCA1−/CD271− (−/−) cells using CD34 immuno-magnetic selection kits (MSCA1+, CD271+ and CD34+ immuno-magnetic selection kits were from Miltenyi Biotec, Paris, France). The purity of each fraction was assessed after selection by flow cytometry analyses.

[2] = tested on: MSCA1+ cells (CD45−/CD34+/CD31−/CD271+/MSCA1+); experiment: In vitro adipogenesis of the immunoselected MSCA1+ cell subset; assay type: cell-based, human; details: IBMX stimulation
Excerpt: as §1
(§2) Total RNAs were extracted using the RNeasy kit (Qiagen). […] RNAs were reverse-transcribed using Superscript® II kit (Invitrogen). TaqMan® Primers are listed in supplemental data Table 1.
Cells or small pieces of whole AT were fixed (paraformaldehyde 4%, room temperature for 15 min for cultured cells and up to 1 h for whole AT). […]

[3] = tested on: native human AT progenitor cells
Method: 120 000 cells were plated per cm^2 in growth medium (ECGM MV) supplemented with […] penicillin-streptomycin. 48 h after seeding, medium was changed into basal defined medium (ECBM) supplemented with […] penicillin-streptomycin, 66 nmol/L Insulin, 1 nmol/L Triiodothyronine, 0.1 μg/ml human Transferrin, 100 nmol/L Cortisol (ITTC, Control) supplemented or not with 3 μmol/L Rosiglitazone or 0.25 mM isobuthylmethaxantine (IBMX). After 3 days, medium was changed and cells were maintained in ITTC medium until day 10. Cells were fixed (paraformaldehyde 4%, 15 min, RT), and stained with Bodipy 493/503 (10 μg/ml, 15 min, Invitrogen) and Hoechst 33342 (5 μg/ml, 15 min, Invitrogen). Stainings were observed by inversed fluorescent microscope (Nikon Eclipse TE300) and 5 pictures were randomly taken under 20X objective (numeric camera and acquisition software NIS-Elements 2.5 BR, Nikon®). Differentiation area (Bodipy stained area, μm^2) was measured with ImageJ software and normalized by nuclei cell number in order to obtain the differentiation area (μm^2) per cell. Total RNAs were extracted using the RNeasy kit (Qiagen). The RNA concentration was measured by fluorimetric assay (Ribogreen, Invitrogen). RNAs were reverse-transcribed using Superscript® II kit (Invitrogen). TaqMan® Primers are listed in supplemental data Table 1. The amplification reaction was done in duplicate on 15 ng of the cDNA samples in a final volume of 20 μL in 96-well reaction plates (Applied Biosystems) in a GeneAmp 7500 detection system (Applied Biosystems). All reactions were performed under the same conditions: 50° C. for 2 minutes, 95° C. for 10 minutes, 40 cycles of 95° C. for 15 seconds, and 60° C. for 1 minute. Results were analyzed with the GeneAmp 7500 software and all values were normalised to 18S rRNA levels. Progenitor cells were cultured under adipogenic conditions with or without 50 μM or 500 μM of tetramisole hydrochloride, an alkaline phosphatase inhibitor. After 3 to 10 days, Bodipy staining was performed or RNAs extracted. Progenitor cells were seeded at the density of 90000/cm2 cells in 12 well-plates. After 24 hours, cells were transfected with 500 ng/mL of MISSION® esiRNA against tissue non-specific alkaline phosphatase (MSCA1) or GFP as negative control with 1 μL of lipofectamine® 2000 (invitrogen) in 1 mL of basal medium. After 12 hours, medium was removed and cells were rinsed once with PBS and cultured under adipogenic conditions for 3 to 10 days and RNAs were extracted.

Progenitor cells = experiment: BMP7 adipogenic culture protocol; assay type: cell-based, human; details: 50 ng/mL for 2 days, then 9 days in ITTC
Method: Progenitor cells were treated during 2 days with recombinant human BMP7 (50 ng/mL) then 9 days in adipogenic medium (ITTC).
MSCA1 gene expression and activity were measured. UCP1 gene expression was measured by RT-PCR.
as §2

CC(C)Cn1c(=O)n(C)c(=O)c2[nH]cnc21 [IBMX, 3-isobutyl-1-methylxanthine]
differentiation [1]: only slightly and insignificantly increased | differentiation (lipid laden cells) ([2]; 0.25 mM): marked appearance of lipid laden cells | UCP1-positive cell clusters ([2]; immunofluorescence): only found in cells from the MSCA1+ subset

c1ccc(C2CN3CCSC3=N2)cc1 (stereo not shown) [tetramisole, tetramisole hydrochloride]
total number of nucleated cells ([3]; 50 μM or 500 μM, adipogenic culture conditions): without altering | adipocyte differentiation ([3]; 50 μM or 500 μM, adipogenic culture conditions, Bodipy staining): concentration-dependent decrease | expression of adipogenic and adipocyte-specific genes after the commitment period ([3]; day 3): No statistically significant effect | expression of adipogenic transcription factors PPARγ2, CHREBP, C/EBPα and adipocyte-specific genes LPL, GPDH, PLIN1 ([3]; day 10): decreased

B1: BMP7: recombinant human BMP7, a Bone Morphogenetic Protein (protein, UniProt P18075 293-431, looked up)
Bone morphogenetic protein 7: STGSKQRSQNRSKTPKNQEALRMANVAENSSSDQRQACKKHELYVSFRDLGWQDWIIAPEGYAAYYCEGECAFPLNSYMNATNHAIVQTLVHFINPETVPKPCCAPTQLNAISVLYFDDSSNVILKKYRNMVVRACGCH
activity of the MSCA1 gene (Progenitor cells): significantly increased | expression of the MSCA1 gene (Progenitor cells): significantly increased | UCP1 gene expression (Progenitor cells; RT-PCR): significant increase
